Calls of active or inactive are those of the source. How the calls were made is not given here.

In this data set the test system is GENE-TOX genotoxicity assays, various organisms and cells. The data set can be described thus: GENE-TOX mutagenicity studies.

As to `COS(=O)(=O)OC`, the mutagenic call is “active; positive” (Species/Cell Type: Arabidopsis species, Assay Type: Gene mutation, Assay Code: ARM+, Evaluation Type: Evaluation A (Pre-1980)); “active; positive” (Species/Cell Type: Aspergillus nidulans, Assay Type: Forward gene mutation, Assay Code: ASF+, Evaluation Type: Evaluation A (Pre-1980)); “active; positive” (Species/Cell Type: Chinese hamster ovary (CHO) cells, Assay Type: Forward gene mutation at the HPRT locus, Assay Code: CHO+D, Dose Response: With dose response, Evaluation Type: Evaluation A (Pre-1980)); “inactive; negative” (Species/Cell Type: Drosophila melanogaster, Assay Type: Aneuploidy, partial sex chromosome loss, chromosome aberrations, Assay Code: DAP-M, Evaluation Type: Evaluation A (Pre-1980)); “active; positive” (Species/Cell Type: Drosophila melanogaster, Assay Type: Aneuploidy, whole sex chromosome loss, chromosome aberrations, Assay Code: DAC+M, Evaluation Type: Evaluation A (Pre-1980)); “active; positive” (Species/Cell Type: Drosophila melanogaster, Assay Type: Sex-linked recessive lethal gene mutation, Assay Code: SRL+, Evaluation Type: Evaluation A (Pre-1980)). In addition, the mutagenic call runs as follows: (Species/Cell Type: Drosophila melanogaster, Sex: Male, Assay Type: Heritable translocation test, chromosome aberrations, Assay Code: DHT+, Evaluation Type: Evaluation A (Pre-1980)) “active; positive”; (Species/Cell Type: Escherichia coli polA (W3119 vs P3478), Assay Type: Rec-assay, DNA effects (bacterial DNA repair), Assay Code: RE1+, Evaluation Type: Evaluation A (Pre-1980)) “active; positive”; (Species/Cell Type: Human, Assay Type: Sister-chromatid exchange (SCE) in vitro, Assay Code: SC1+D, Dose Response: With dose response, Evaluation Type: Evaluation A (Pre-1980)) “active; positive”; (Species/Cell Type: Nonhuman, Assay Type: Chromosome aberrations in vitro, Assay Code: CY&+, Evaluation Type: Evaluation A (Pre-1980)) “active; positive”; (Species/Cell Type: Nonhuman, Assay Type: Sister-chromatid exchange (SCE) in vitro, Assay Code: SC2+, Evaluation Type: Evaluation A (Pre-1980)) “active; positive”; (Species/Cell Type: Saccharomyces cerevisiae, Assay Type: Reverse gene mutation, Assay Code: YER+, Evaluation Type: Evaluation A (Pre-1980)) “active; positive”. Also, the mutagenic call reads like this: (Species/Cell Type: Salmonella typhimurium (one or more of the five standard strains: TA98, TA100, TA1535, TA1537, and TA1538), Assay Type: Histidine reverse gene mutation, Ames assay, Assay Code: SALT, Evaluation Type: Evaluation A (Pre-1980)) “no conclusion”; (Species/Cell Type: Salmonella typhimurium, Assay Type: Forward and reverse gene mutation, host-mediated assay, Assay Code: HMA+, Evaluation Type: Evaluation A (Pre-1980)) “active; positive”; (Species/Cell Type: Schizosaccharomyces pombe, Assay Type: Reverse gene mutation, Assay Code: YEZ+, Evaluation Type: Evaluation A (Pre-1980)) “active; positive”. The call (Species/Cell Type: Nonhuman, Assay Type: In vivo carcinogenicity studies, Assay Code: CCG+, Evaluation Type: Evaluation A (Pre-1980)) is “active; positive”.

Consider `CN(N=O)C(=O)Oc1cccc2ccccc12`, for which the mutagenic call is, setting by setting: (Species/Cell Type: Bacillus subtilis (H17 vs M45T), Assay Type: Rec-assay, spot test, DNA effects (bacterial DNA repair), Assay Code: REX+, Evaluation Type: Evaluation A (Pre-1980)) “active; positive”; (Species/Cell Type: Escherichia coli WP2, Assay Type: Tryptophan reverse gene mutation, Assay Code: WP2+, Evaluation Type: Evaluation A (Pre-1980)) “active; positive”; (Species/Cell Type: Nonhuman, Assay Type: Sister-chromatid exchange (SCE) in vitro, Assay Code: SC2+D, Dose Response: With dose response, Evaluation Type: Evaluation B (Post-1980)) “active; positive”; (Species/Cell Type: Saccharomyces cerevisiae, Assay Type: Mitotic recombination or gene conversion, Assay Code: YEC+, Evaluation Type: Evaluation A (Pre-1980)) “active; positive”; (Species/Cell Type: Salmonella typhimurium (one or more of the five standard strains: TA98, TA100, TA1535, TA1537, and TA1538), Assay Type: Histidine reverse gene mutation, Ames assay, Assay Code: SAL+, Evaluation Type: Evaluation A (Pre-1980)) “active; positive”.

Take `CCCCCc1cc(O)cc(O)c1`: the mutagenic call (Species/Cell Type: Human lymphocytes, Assay Type: Micronucleus test in vitro, chromosome aberrations, Assay Code: MN7+, Evaluation Type: Evaluation A (Pre-1980)) is “active; positive”.

`O=C(Nc1cc(Cl)cc(Cl)c1O)c1c(O)c(Cl)cc(Cl)c1Cl`: the mutagenic call (Species/Cell Type: Mammalian polychromatic erythrocytes, Assay Type: Micronucleus test, chromosome aberrations, Assay Code: MNTT, Evaluation Type: Evaluation B (Post-1980)) was “no conclusion”.

On to `CC(O)c1ccccc1` (centres undefined), for which, where the note is “Species/Cell Type: Escherichia coli polA (W3119 vs P3478), Assay Type: Rec-assay, DNA effects (bacterial DNA repair), Assay Code: RE1T, Evaluation Type: Evaluation A (Pre-1980)”, the mutagenic call is “no conclusion”.

Values taken from PubChem BioAssay AID1259408 (Genetic Toxicology Data Bank (GENE-TOX), 2018).
